Laboratory results reported in the supplement of paper PMC10307832.

What was measured:
Experiment in all cases: relative viability (nuclei count vs DMSO), 5 days (fraction); higher = more cells survive
NCI-H1915 = test system: NCI-H1915
Outline: (§1)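 Lung cancer cell lines were seeded in 1536-well plates and dosed by pin tool the next day, with either a single drug or a fixed anchor-drug dose combined with five library-drug doses (not always all listed) spaced in √10 steps. Five days later, one step fixed the cells and stained their nuclei (final 0.05% Triton X-100, 1% formaldehyde, 1 ug/ml Hoechst), and nuclei were counted on 4× images. Relative viability is the nuclei count in treated wells divided by the count in vehicle wells, and each value is the median of duplicate plates.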

NCI-H2023 = test system: NCI-H2023
Outline: as §1

NCI-H2347 = test system: NCI-H2347
Outline: as §1

NCI-H2009 = test system: NCI-H2009
Outline: as §1

LXF-289 = test system: LXF-289
Outline: as §1

EMC-BAC-2 = test system: EMC-BAC-2
Outline: as §1

LCLC-97TM1 = test system: LCLC-97TM1
Outline: as §1

EPLC-272H = test system: EPLC-272H
Outline: as §1

HOP-62 = test system: HOP-62
Outline: as §1

PC-14 = test system: PC-14
Outline: as §1

SW 1573 = test system: SW 1573
Outline: as §1

NCI-H1563 = test system: NCI-H1563
Outline: as §1

NCI-H1993 = test system: NCI-H1993
Outline: as §1

NCI-H2126 = test system: NCI-H2126
Outline: as §1

NCI-H2342 = test system: NCI-H2342
Outline: as §1

SK-LU-1 = test system: SK-LU-1
Outline: as §1

NCI-H1650 = test system: NCI-H1650
Outline: as §1

NCI-H727 = test system: NCI-H727
Outline: as §1

NCI-H322M = test system: NCI-H322M
Outline: as §1

NCI-H661 = test system: NCI-H661
Outline: as §1

NCI-H647 = test system: NCI-H647
Outline: as §1

H3255 = test system: H3255
Outline: as §1

NCI-H2085 = test system: NCI-H2085
Outline: as §1

Oc1nc(-c2ccc(C(F)(F)F)cc2)nc2c1CSCC2 [XAV939] + COc1cc2c(Oc3ccc(NC(=O)C4(C(=O)Nc5ccc(F)cc5)CC4)cc3F)ccnc2cc1OCCCN1CCOCC1 [Foretinib] (partner 0.25 µM)
relative viability (NCI-H1915; first compound 0.08 µM): 1.18
relative viability (NCI-H1915; first compound 0.253 µM): 1.11
relative viability (NCI-H1915; first compound 0.8 µM): 1.08
relative viability (NCI-H1915; first compound 2.53 µM): 1.03
relative viability (NCI-H2023; first compound 0.08 µM): 0.847
relative viability (NCI-H2023; first compound 0.253 µM): 0.756
relative viability (NCI-H2023; first compound 0.8 µM): 0.659
relative viability (NCI-H2023; first compound 2.53 µM): 0.514
relative viability (NCI-H2347; first compound 0.08 µM): 0.797
relative viability (NCI-H2347; first compound 0.253 µM): 0.803
relative viability (NCI-H2347; first compound 0.8 µM): 0.786
relative viability (NCI-H2347; first compound 2.53 µM): 0.354
relative viability (NCI-H2009; first compound 0.08 µM): 1.32
relative viability (NCI-H2009; first compound 0.253 µM): 1.21
relative viability (NCI-H2009; first compound 0.8 µM): 1.18
relative viability (NCI-H2009; first compound 2.53 µM): 1.16
relative viability (LXF-289; first compound 0.08 µM): 0.985
relative viability (LXF-289; first compound 0.253 µM): 0.95
relative viability (LXF-289; first compound 0.8 µM): 0.967
relative viability (LXF-289; first compound 2.53 µM): 0.988
relative viability (EMC-BAC-2; first compound 0.08 µM): 1.05
relative viability (EMC-BAC-2; first compound 0.253 µM): 0.747
relative viability (EMC-BAC-2; first compound 0.8 µM): 0.848
relative viability (EMC-BAC-2; first compound 2.53 µM): 0.553
relative viability (LCLC-97TM1; first compound 0.08 µM): 0.919
relative viability (LCLC-97TM1; first compound 0.253 µM): 0.796
relative viability (LCLC-97TM1; first compound 0.8 µM): 0.897
relative viability (LCLC-97TM1; first compound 2.53 µM): 0.936
relative viability (EPLC-272H; first compound 0.08 µM): 0.808
relative viability (EPLC-272H; first compound 0.253 µM): 0.603
relative viability (EPLC-272H; first compound 0.8 µM): 0.672
relative viability (EPLC-272H; first compound 2.53 µM): 0.548
relative viability (HOP-62; first compound 0.08 µM): 1.23
relative viability (HOP-62; first compound 0.253 µM): 1.04
relative viability (HOP-62; first compound 0.8 µM): 0.996
relative viability (HOP-62; first compound 2.53 µM): 0.943
relative viability (PC-14; first compound 0.08 µM): 0.945
relative viability (PC-14; first compound 0.253 µM): 0.869
relative viability (PC-14; first compound 0.8 µM): 0.885
relative viability (PC-14; first compound 2.53 µM): 0.905
relative viability (SW 1573; first compound 0.08 µM): 1.2
relative viability (SW 1573; first compound 0.253 µM): 0.816
relative viability (SW 1573; first compound 0.8 µM): 0.732
relative viability (SW 1573; first compound 2.53 µM): 0.788
relative viability (NCI-H1563; first compound 0.08 µM): 1.02
relative viability (NCI-H1563; first compound 0.253 µM): 0.905
relative viability (NCI-H1563; first compound 0.8 µM): 0.831
relative viability (NCI-H1563; first compound 2.53 µM): 0.678
relative viability (NCI-H1993; first compound 0.08 µM): 0.753
relative viability (NCI-H1993; first compound 0.253 µM): 0.7
relative viability (NCI-H1993; first compound 0.8 µM): 0.688
relative viability (NCI-H1993; first compound 2.53 µM): 0.65
relative viability (NCI-H2126; first compound 0.08 µM): 1.1
relative viability (NCI-H2126; first compound 0.253 µM): 0.989
relative viability (NCI-H2126; first compound 0.8 µM): 1.17
relative viability (NCI-H2126; first compound 2.53 µM): 0.725
relative viability (NCI-H2342; first compound 0.08 µM): 1.08
relative viability (NCI-H2342; first compound 0.253 µM): 0.936
relative viability (NCI-H2342; first compound 0.8 µM): 0.932
relative viability (NCI-H2342; first compound 2.53 µM): 0.529
relative viability (SK-LU-1; first compound 0.08 µM): 0.861
relative viability (SK-LU-1; first compound 0.253 µM): 0.756
relative viability (SK-LU-1; first compound 0.8 µM): 0.883
relative viability (SK-LU-1; first compound 2.53 µM): 0.78
relative viability (NCI-H1650; first compound 0.08 µM): 1.16
relative viability (NCI-H1650; first compound 0.253 µM): 1.25
relative viability (NCI-H1650; first compound 0.8 µM): 1.09
relative viability (NCI-H1650; first compound 2.53 µM): 0.625
relative viability (NCI-H727; first compound 0.08 µM): 0.997
relative viability (NCI-H727; first compound 0.253 µM): 0.774
relative viability (NCI-H727; first compound 0.8 µM): 0.821
relative viability (NCI-H727; first compound 2.53 µM): 0.928
relative viability (NCI-H322M; first compound 0.08 µM): 1.11
relative viability (NCI-H322M; first compound 0.253 µM): 0.921
relative viability (NCI-H322M; first compound 0.8 µM): 0.778
relative viability (NCI-H322M; first compound 2.53 µM): 0.609
relative viability (NCI-H661; first compound 0.08 µM): 1.01
relative viability (NCI-H661; first compound 0.253 µM): 0.991
relative viability (NCI-H661; first compound 0.8 µM): 0.993
relative viability (NCI-H661; first compound 2.53 µM): 0.929
relative viability (NCI-H647; first compound 0.08 µM): 1.21
relative viability (NCI-H647; first compound 0.253 µM): 0.958
relative viability (NCI-H647; first compound 0.8 µM): 0.991
relative viability (NCI-H647; first compound 2.53 µM): 0.609
relative viability (H3255; first compound 0.08 µM): 0.845
relative viability (H3255; first compound 0.253 µM): 0.825
relative viability (H3255; first compound 0.8 µM): 0.803
relative viability (H3255; first compound 2.53 µM): 0.851
relative viability (NCI-H2085; first compound 0.08 µM): 1.06
relative viability (NCI-H2085; first compound 0.253 µM): 1.11
relative viability (NCI-H2085; first compound 0.8 µM): 0.772
relative viability (NCI-H2085; first compound 2.53 µM): 0.893
